In US6335367B1 (priority 1999, dated 2002):

Experiments:
Assay type in all cases: in vivo
[1] = test system: Plasiitopara viticola; experiment: Grape Downy Mildew (GDM) protective test on grape plants; conditions: 300 grams/hectare; protective spray; seven days after inoculation
Procedure: Numerous compounds of this invention were tested for fungicidal activity in vivo against the diseases described below. The compounds were dissolved a 1:1 mixture of acetone and methanol or N, N-dimethylformamide and diluted with a 2:1:1 mixture of water, acetone, and methanol (by volume) or water, respectively, to achieve the appropriate concentration. The solution was sprayed onto the plants, and allowed to dry (two hours). Then the plants were inoculated with fungal spores. Each test utilized control plants which were sprayed with the appropriate solvent mixture and inoculated. For these protective tests, the plants were inoculated one day after treating the plants with the fungicide compound. The remainder of the technique of each of the tests is given below along with the results for various compounds described herein by the Compound # against the various fungi at a dose of 300 grams per hectare. The results are percent disease control are compared to the untreated check wherein one hundred was rated as complete disease control and zero as no disease control.
Plasiitopara viticola was maintained on leaves of grape plants, cultivar. Delaware, in a controlled temperature chamber at 20° C. in humid air with moderate light intensity for 7 to 8 days. A water suspension of the spores from infested leaves was obtained and the spore concentration was adjusted to about 3×10^5 per ml of water. Delaware grape plants were inoculated by spraying the underside of leaves with a DeVilbiss atomizer until small drops were observed on the leaves. The inoculated plants were incubated in a mist chamber for 24 hours at 20° C. The plants were then removed to a controlled environmental room at 20° C. Disease control values were recorded as percent control seven days after inoculation.

[2] = test system: Pucciitia recoitdita (f. sp. tritici); conditions: 300 grams per hectare; protective spray, inoculated one day after treatment; evaluated after 12 days
[3] = test system: two-spotted spider mite Teranychus uricate; experiment: Insecticidal leaf disk test, two-spotted spider mite (MTA); conditions: 300 grams/hectare; leaf disk infested prior to spraying; visual inspection 24-48 hours after spraying
Procedure: (§1) Numerous compounds of this invention were tested for insecticidal activity in vivo against the insects described below. The following test method was used to evaluate compounds of the present invention for insecticidal activity. The compound to be evaluated was dissolved in an appropriate solvent, usually a mix of acetone, methanol and water, and sprayed over three excised leaf disks using a flat fan nozzle. After spraying, the leaf disks were allowed to dry. Two disks were infested with the leaf chewing insects (southern armyworm and Mexican bean beetle) and the third leaf disk was already infested with the two-spotted spider mite prior to spraying. The tested insect species were:
MTA two-spotted spider mite Teranychus uricate
(§2) Observations as percent control were made by visual inspection 24-48 hours after spraying.

[4] = test system: Mexican bean beetle Epilachiba varivestis; experiment: Insecticidal leaf disk test, Mexican bean beetle (BB); conditions: 300 grams/hectare; sprayed leaf disk; visual inspection 24-48 hours after spraying
Procedure: as §1
BB Mexican bean beetle Epilachiba varivestis
as §2

CNC(=O)C(=NOC)c1ccccc1COc1cccc(C2CC2C(=NOC)C2CC2)c1 (stereo not shown) [Compound 3.34] was tested, and the “percent disease control, grape downy mildew” value [1] was 100% and the “percent disease control, wheat leaf rust” value [2] was 100%.

CCON=C(C1CC1)C1CC1c1cccc(OCc2ccccc2C(=COC)C(=O)OC)c1 (single isomer, unassigned) [Compound 1.108A] was tested, and the “percent disease control, grape downy mildew” value [1] was 100%, the “percent control, two-spotted spider mite” value [3] was 100% and the “percent disease control, wheat leaf rust” value [2] was 100%. The “percent control, Mexican bean beetle” value [4] was 100%.

For COC=C(C(=O)OC)c1ccccc1COc1cccc(C2CC2C(=NOC)C2CC=C(C)CC2)c1 (stereo not shown) [Compound 1.33], the “percent control, two-spotted spider mite” value [3] was 100% and the “percent control, Mexican bean beetle” value [4] was 100%.

In the case of COC=C(C(=O)OC)c1ccccc1COc1cccc(C2CC2C(C)=NOC)c1 (single isomer, unassigned) [Compound 1.18A], the “percent disease control, grape downy mildew” value [1] is reported as 100%, the “percent control, two-spotted spider mite” value [3] is reported as 100% and the “percent disease control, wheat leaf rust” value [2] is reported as 100%. The “percent control, Mexican bean beetle” value [4] was 100%.

With CCON=C(C1CC1)C1CC1c1cccc(OCc2ccccc2C(=COC)C(=O)OC)c1 (single isomer, unassigned) [Compound 1.108B] the “percent disease control, grape downy mildew” value [1] was 100% and the “percent disease control, wheat leaf rust” value [2] was 100%.

CCC(C)C(NNc1ccccc1)=C1CC1c1cccc(OCc2ccccc2/C(=C\OC)C(=O)OC)c1 (stereo not drawn) [Compound 4.17, Methyl (E)-3-methoxy-2-trans-[2-(3-(2-(2-ethyl-1-(2-phenylhydrazino)propylidene)cyclopropyl)phenoxymethyl)phenyl]-2-propenoate] was tested, and the “percent disease control, wheat leaf rust” value [2] was 100%.

CCCCCCC(=NOC)C1CC1c1cccc(OCc2ccccc2/C(=C\OC)C(=O)OC)c1 (stereo not drawn) [Compound 1.23, Methyl (E)-3-methoxy-2-trans-[2-(3-(2-(methoximinohept-1-yl)cyclopropyl)-phenoxymethyl)phenyl]-2-propenoate] was tested, and the “percent disease control, grape downy mildew” value [1] was 100%, the “percent control, two-spotted spider mite” value [3] was 100% and the “percent control, Mexican bean beetle” value [4] was 100%.

With COC=C(C(=O)OC)c1ccccc1COc1cccc(C2CC2C(C)=NOC)c1 (single isomer, unassigned) [Compound 1.18B] the “percent disease control, grape downy mildew” value [1] was 100%, the “percent control, two-spotted spider mite” value [3] was 100% and the “percent disease control, wheat leaf rust” value [2] was 100%. The “percent control, Mexican bean beetle” value [4] was 100%.

In the case of CNC(=O)C(=NOC)c1ccccc1COc1cccc(C2CC2C(C)=NOC)c1 (single isomer, unassigned) [Compound 3.18B], the “percent disease control, grape downy mildew” value [1] is reported as 100% and the “percent disease control, wheat leaf rust” value [2] is reported as 100%.

With COC=C(C(=O)OC)c1ccccc1COc1cccc(C2CC2C(=NOC(C)(C)C)C2CC2)c1 (stereo not shown) [Compound 1.110] the “percent control, two-spotted spider mite” value [3] was 100% and the “percent control, Mexican bean beetle” value [4] was 100%.

For COC=C(C(=O)OC)c1ccccc1COc1cccc(C2CC2C(CC(C)C)=NOC)c1 (stereo not shown) [Compound 1.24], the “percent disease control, grape downy mildew” value [1] was 100%, the “percent control, two-spotted spider mite” value [3] was 100% and the “percent control, Mexican bean beetle” value [4] was 100%.

In the case of CO/C=C(/C(=O)OC)c1ccccc1COc1cccc(C2CC2C(=NOC)C2CC2)c1 (stereo not drawn) [Compound 1.34, Methyl (E)-3-methoxy-2-trans-[2-(3-(2-(methoximinocycloprop-1-yl)cyclopropyl)phenoxymethyl)phenyl]-2-propenoate], the “percent disease control, grape downy mildew” value [1] is reported as 100%, the “percent control, two-spotted spider mite” value [3] is reported as 100% and the “percent disease control, wheat leaf rust” value [2] is reported as 100%. For the same compound, the “percent control, Mexican bean beetle” value [4] was 100%.

In the case of COC=C(C(=O)OC)c1ccccc1COc1cccc(C2CC2C(=NOC)c2ccc(Cl)cc2)c1 (stereo not shown) [Compound 1.04], the “percent control, two-spotted spider mite” value [3] is reported as 100% and the “percent disease control, wheat leaf rust” value [2] is reported as 100%.

With COC=C(C(=O)OC)c1ccccc1COc1cccc(C2CC2C(=NNC(=O)c2ccccc2)C2CC2)c1 (stereo not drawn) [Compound 4.98, Methyl (E)-3-methoxy-2-trans-[2-(3-(2-(1-(N-benzoylhydrazinomethylidine)cycloprop-1-yl)cyclopropyl)phenoxymethyl)phenyl]-2-propenoate] the “percent disease control, wheat leaf rust” value [2] was 100%.

With COC=C(C(=O)OC)c1ccccc1COc1cccc(C2CC2C(=NOCc2ccccc2)C2CC2)c1 (stereo not shown) [Compound 1.115] the “percent disease control, grape downy mildew” value [1] was 100%, the “percent control, two-spotted spider mite” value [3] was 100% and the “percent control, Mexican bean beetle” value [4] was 100%.

CNC(=O)C(=NOC)c1ccccc1COc1cccc(C2CC2C(C)=NOC)c1 (single isomer, unassigned) [Compound 3.18A] was tested, and the “percent disease control, wheat leaf rust” value [2] was 100%.
